Laboratory results from patent US20190167724A1, “NEUROPROTECTIVE COMPOSITION, PREPARATION PROCESS THEREOF AND MEDICAL USES THEREOF” (priority 2017, published 2019).
Marks after values point to notes of the source that are not given here.

System: 6-OHDA induced Parkinson's Disease-like Zebrafish Larvae Model
Assay: Anti-Parkinson's Disease efficacy test in 6-OHDA zebrafish larvae model
Format: in vivo
Details: soaking at 1.5 μg/mL, co-treated with 6-OHDA

CN1Cc2c(N)cccc2C(c2ccccc2)C1 (centres unmarked) [Nomifensine]
Anti-Parkinson's Disease Efficacy (Motility Increase Rate): 40.9%*
Total Distance (mm) (Mean ± SE) (30 minutes, n = 10): 2738 ± 165 mm
